Reference: ChEMBL document CHEMBL6121016, “Design, Synthesis, and Biological Evaluation of 1,3,4-Thiadiazole Derivatives as Novel Potent Peptide Deformylase Inhibitors for Combating Drug-Resistant Gram-Positive and -Negative Bacteria” (J Med Chem, 2025)
Converted amounts (≈) assume the structure as drawn.

Each compound was assayed on Staphylococcus aureus (assay: Antibacterial activity against methicillin-resistant Staphylococcus aureus ATCC 33591 after 16 to 18 hrs by broth microdilution method). Details: time 16-18 hrs.
Type: functional

Structure (SMILES)	MIC [µg/mL]
CCCC[C@H](CN(O)C=O)C(=O)N1CCC[C@H]1c1nnc(-c2ccco2)s1	0.5 (≈ 1.27 µM)
CCCC[C@H](CN(O)C=O)C(=O)N1CCC[C@H]1c1nnc(-c2cccc3ccccc23)s1	4 (≈ 8.84 µM)
CCCC[C@H](CN(O)C=O)C(=O)N1CCC[C@H]1c1nnc(-c2sccc2F)s1	0.5 (≈ 1.17 µM)
CCCC[C@H](CN(O)C=O)C(=O)N1CCC[C@H]1c1nnc(-c2cc(C)nn2C)s1	0.25 (≈ 0.594 µM)
CCCC[C@H](CN(O)C=O)C(=O)N1CCC[C@H]1c1nnc(-c2ccc(F)cc2[N+](=O)[O-])s1	1 (≈ 2.15 µM)
CCCC[C@H](CN(O)C=O)C(=O)N1CCC[C@H]1c1nnc(-c2ccc(OC)c(OC)c2)s1	0.25 (≈ 0.54 µM)
CCCC[C@H](CN(O)C=O)C(=O)N1CCC[C@H]1c1nnc(C2CCCCC2)s1	0.5 (≈ 1.22 µM)

Each compound was assayed on Staphylococcus aureus (assay: Antibacterial activity against methicillin-susceptible Staphylococcus aureus ATCC 25923 after 16 to 18 hrs by broth microdilution method). Details: time 16-18 hrs.
Type: functional

Structure (SMILES)	MIC [µg/mL]
CCCC[C@H](CN(O)C=O)C(=O)N1CCC[C@H]1c1nnc(-c2ccco2)s1	4 (≈ 10.2 µM)
CCCC[C@H](CN(O)C=O)C(=O)N1CCC[C@H]1c1nnc(-c2cccc3ccccc23)s1	16 (≈ 35.4 µM)
CCCC[C@H](CN(O)C=O)C(=O)N1CCC[C@H]1c1nnc(-c2sccc2F)s1	0.5 (≈ 1.17 µM)
CCCC[C@H](CN(O)C=O)C(=O)N1CCC[C@H]1c1nnc(-c2cc(C)nn2C)s1	1 (≈ 2.38 µM)
CCCC[C@H](CN(O)C=O)C(=O)N1CCC[C@H]1c1nnc(-c2ccc(F)cc2[N+](=O)[O-])s1	4 (≈ 8.59 µM)
CCCC[C@H](CN(O)C=O)C(=O)N1CCC[C@H]1c1nnc(-c2ccc(OC)c(OC)c2)s1	1 (≈ 2.16 µM)
CCCC[C@H](CN(O)C=O)C(=O)N1CCC[C@H]1c1nnc(C2CCCCC2)s1	2 (≈ 4.9 µM)

What follows are compounds tested on Staphylococcus aureus (assay: Antibacterial activity against methicillin-susceptible Staphylococcus aureus ATCC 13709 after 16 to 18 hrs by broth microdilution method). Details: time 16-18 hrs.
Type: functional

Structure (SMILES)	MIC [µg/mL]
CCCC[C@H](CN(O)C=O)C(=O)N1CCC[C@H]1c1nnc(-c2ccco2)s1	1 (≈ 2.55 µM)
CCCC[C@H](CN(O)C=O)C(=O)N1CCC[C@H]1c1nnc(-c2cccc3ccccc23)s1	16 (≈ 35.4 µM)
CCCC[C@H](CN(O)C=O)C(=O)N1CCC[C@H]1c1nnc(-c2sccc2F)s1	0.5 (≈ 1.17 µM)
CCCC[C@H](CN(O)C=O)C(=O)N1CCC[C@H]1c1nnc(-c2cc(C)nn2C)s1	1 (≈ 2.38 µM)
CCCC[C@H](CN(O)C=O)C(=O)N1CCC[C@H]1c1nnc(-c2ccc(F)cc2[N+](=O)[O-])s1	2 (≈ 4.3 µM)
CCCC[C@H](CN(O)C=O)C(=O)N1CCC[C@H]1c1nnc(-c2ccc(OC)c(OC)c2)s1	1 (≈ 2.16 µM)
CCCC[C@H](CN(O)C=O)C(=O)N1CCC[C@H]1c1nnc(C2CCCCC2)s1	2 (≈ 4.9 µM)

What follows are compounds tested on Staphylococcus epidermidis (assay: Antibacterial activity against Staphylococcus epidermidis after 16 to 18 hrs by broth microdilution method). Details: time 16-18 hrs.
Type: functional

Structure (SMILES)	MIC [µg/mL]
CCCC[C@H](CN(O)C=O)C(=O)N1CCC[C@H]1c1nnc(-c2ccco2)s1	0.5 (≈ 1.27 µM)
CCCC[C@H](CN(O)C=O)C(=O)N1CCC[C@H]1c1nnc(-c2cccc3ccccc23)s1	2 (≈ 4.42 µM)
CCCC[C@H](CN(O)C=O)C(=O)N1CCC[C@H]1c1nnc(-c2sccc2F)s1	1 (≈ 2.34 µM)
CCCC[C@H](CN(O)C=O)C(=O)N1CCC[C@H]1c1nnc(-c2cc(C)nn2C)s1	1 (≈ 2.38 µM)
CCCC[C@H](CN(O)C=O)C(=O)N1CCC[C@H]1c1nnc(-c2ccc(F)cc2[N+](=O)[O-])s1	4 (≈ 8.59 µM)
CCCC[C@H](CN(O)C=O)C(=O)N1CCC[C@H]1c1nnc(-c2ccc(OC)c(OC)c2)s1	2 (≈ 4.32 µM)
CCCC[C@H](CN(O)C=O)C(=O)N1CCC[C@H]1c1nnc(C2CCCCC2)s1	4 (≈ 9.79 µM)

Each compound was assayed on Escherichia coli (assay: Antibacterial activity against Escherichia coli ATCC 25922 after 16 to 18 hrs by broth microdilution method). Details: time 16-18 hrs.
Type: functional

Structure (SMILES)	MIC [µg/mL]
CCCC[C@H](CN(O)C=O)C(=O)N1CCC[C@H]1c1nnc(-c2ccco2)s1	64 (≈ 163 µM)
CCCC[C@H](CN(O)C=O)C(=O)N1CCC[C@H]1c1nnc(-c2cccc3ccccc23)s1	> 16
CCCC[C@H](CN(O)C=O)C(=O)N1CCC[C@H]1c1nnc(-c2sccc2F)s1	64 (≈ 150 µM)
CCCC[C@H](CN(O)C=O)C(=O)N1CCC[C@H]1c1nnc(-c2cc(C)nn2C)s1	64 (≈ 152 µM)
CCCC[C@H](CN(O)C=O)C(=O)N1CCC[C@H]1c1nnc(-c2ccc(F)cc2[N+](=O)[O-])s1	> 16
CCCC[C@H](CN(O)C=O)C(=O)N1CCC[C@H]1c1nnc(-c2ccc(OC)c(OC)c2)s1	> 16
CCCC[C@H](CN(O)C=O)C(=O)N1CCC[C@H]1c1nnc(C2CCCCC2)s1	> 16

These compounds were tested on Acinetobacter baumannii (assay: Antibacterial activity against Acinetobacter baumannii Bio 34235 after 16 to 18 hrs by broth microdilution method). Details: time 16-18 hrs.
Type: functional

Structure (SMILES)	MIC [µg/mL]
CCCC[C@H](CN(O)C=O)C(=O)N1CCC[C@H]1c1nnc(-c2ccco2)s1	16 (≈ 40.8 µM)
CCCC[C@H](CN(O)C=O)C(=O)N1CCC[C@H]1c1nnc(-c2cccc3ccccc23)s1	> 16
CCCC[C@H](CN(O)C=O)C(=O)N1CCC[C@H]1c1nnc(-c2sccc2F)s1	16 (≈ 37.5 µM)
CCCC[C@H](CN(O)C=O)C(=O)N1CCC[C@H]1c1nnc(-c2cc(C)nn2C)s1	32 (≈ 76.1 µM)
CCCC[C@H](CN(O)C=O)C(=O)N1CCC[C@H]1c1nnc(-c2ccc(F)cc2[N+](=O)[O-])s1	> 16
CCCC[C@H](CN(O)C=O)C(=O)N1CCC[C@H]1c1nnc(-c2ccc(OC)c(OC)c2)s1	> 16
CCCC[C@H](CN(O)C=O)C(=O)N1CCC[C@H]1c1nnc(C2CCCCC2)s1	> 16

Each compound was assayed on Staphylococcus aureus (assay: Antibacterial activity against methicillin-susceptible Staphylococcus aureus ATCC 29213 after 16 to 18 hrs by broth microdilution method). Details: time 16-18 hrs.
Type: functional

Structure (SMILES)	MIC [µg/mL]
CCCC[C@H](CN(O)C=O)C(=O)N1CCC[C@H]1c1nnc(-c2ccco2)s1	2 (≈ 5.1 µM)
CCCC[C@H](CN(O)C=O)C(=O)N1CCC[C@H]1c1nnc(-c2cccc3ccccc23)s1	16 (≈ 35.4 µM)
CCCC[C@H](CN(O)C=O)C(=O)N1CCC[C@H]1c1nnc(-c2sccc2F)s1	0.5 (≈ 1.17 µM)
CCCC[C@H](CN(O)C=O)C(=O)N1CCC[C@H]1c1nnc(-c2cc(C)nn2C)s1	1 (≈ 2.38 µM)
CCCC[C@H](CN(O)C=O)C(=O)N1CCC[C@H]1c1nnc(-c2ccc(F)cc2[N+](=O)[O-])s1	2 (≈ 4.3 µM)
CCCC[C@H](CN(O)C=O)C(=O)N1CCC[C@H]1c1nnc(-c2ccc(OC)c(OC)c2)s1	0.5 (≈ 1.08 µM)
CCCC[C@H](CN(O)C=O)C(=O)N1CCC[C@H]1c1nnc(C2CCCCC2)s1	2 (≈ 4.9 µM)

What follows are compounds tested on Staphylococcus aureus (assay: Antibacterial activity against methicillin-resistant Staphylococcus aureus ATCC 43300 after 16 to 18 hrs by broth microdilution method). Details: time 16-18 hrs.
Type: functional

Structure (SMILES)	MIC [µg/mL]
CCCC[C@H](CN(O)C=O)C(=O)N1CCC[C@H]1c1nnc(-c2ccco2)s1	0.5 (≈ 1.27 µM)
CCCC[C@H](CN(O)C=O)C(=O)N1CCC[C@H]1c1nnc(-c2cccc3ccccc23)s1	16 (≈ 35.4 µM)
CCCC[C@H](CN(O)C=O)C(=O)N1CCC[C@H]1c1nnc(-c2sccc2F)s1	0.5 (≈ 1.17 µM)
CCCC[C@H](CN(O)C=O)C(=O)N1CCC[C@H]1c1nnc(-c2cc(C)nn2C)s1	0.25 (≈ 0.594 µM)
CCCC[C@H](CN(O)C=O)C(=O)N1CCC[C@H]1c1nnc(-c2ccc(F)cc2[N+](=O)[O-])s1	2 (≈ 4.3 µM)
CCCC[C@H](CN(O)C=O)C(=O)N1CCC[C@H]1c1nnc(-c2ccc(OC)c(OC)c2)s1	0.25 (≈ 0.54 µM)
CCCC[C@H](CN(O)C=O)C(=O)N1CCC[C@H]1c1nnc(C2CCCCC2)s1	1 (≈ 2.45 µM)

Each compound was assayed on Klebsiella pneumoniae (assay: Antibacterial activity against Klebsiella pneumoniae CICC 21611 after 16 to 18 hrs by broth microdilution method). Details: time 16-18 hrs.
Type: functional

Structure (SMILES)	MIC [µg/mL]
CCCC[C@H](CN(O)C=O)C(=O)N1CCC[C@H]1c1nnc(-c2ccco2)s1	32 (≈ 81.5 µM)
CCCC[C@H](CN(O)C=O)C(=O)N1CCC[C@H]1c1nnc(-c2cccc3ccccc23)s1	> 16
CCCC[C@H](CN(O)C=O)C(=O)N1CCC[C@H]1c1nnc(-c2sccc2F)s1	16 (≈ 37.5 µM)
CCCC[C@H](CN(O)C=O)C(=O)N1CCC[C@H]1c1nnc(-c2cc(C)nn2C)s1	32 (≈ 76.1 µM)
CCCC[C@H](CN(O)C=O)C(=O)N1CCC[C@H]1c1nnc(-c2ccc(F)cc2[N+](=O)[O-])s1	> 16
CCCC[C@H](CN(O)C=O)C(=O)N1CCC[C@H]1c1nnc(-c2ccc(OC)c(OC)c2)s1	> 16
CCCC[C@H](CN(O)C=O)C(=O)N1CCC[C@H]1c1nnc(C2CCCCC2)s1	> 16

Each compound was assayed on Staphylococcus aureus (assay: Antibacterial activity against methicillin-resistant Staphylococcus aureus Bio-090770 after 16 to 18 hrs by broth microdilution method). Details: time 16-18 hrs.
Type: functional

Structure (SMILES)	MIC [µg/mL]
CCCC[C@H](CN(O)C=O)C(=O)N1CCC[C@H]1c1nnc(-c2ccco2)s1	2 (≈ 5.1 µM)
CCCC[C@H](CN(O)C=O)C(=O)N1CCC[C@H]1c1nnc(-c2cccc3ccccc23)s1	16 (≈ 35.4 µM)
CCCC[C@H](CN(O)C=O)C(=O)N1CCC[C@H]1c1nnc(-c2sccc2F)s1	2 (≈ 4.69 µM)
CCCC[C@H](CN(O)C=O)C(=O)N1CCC[C@H]1c1nnc(-c2cc(C)nn2C)s1	1 (≈ 2.38 µM)
CCCC[C@H](CN(O)C=O)C(=O)N1CCC[C@H]1c1nnc(-c2ccc(F)cc2[N+](=O)[O-])s1	4 (≈ 8.59 µM)
CCCC[C@H](CN(O)C=O)C(=O)N1CCC[C@H]1c1nnc(-c2ccc(OC)c(OC)c2)s1	1 (≈ 2.16 µM)
CCCC[C@H](CN(O)C=O)C(=O)N1CCC[C@H]1c1nnc(C2CCCCC2)s1	2 (≈ 4.9 µM)

What follows are compounds tested on Acinetobacter baumannii (assay: Antibacterial activity against drug-resistant Acinetobacter baumannii Bio 53272 after 16 to 18 hrs by broth microdilution method). Details: time 16-18 hrs.
Type: functional

Structure (SMILES)	MIC [µg/mL]
CCCC[C@H](CN(O)C=O)C(=O)N1CCC[C@H]1c1nnc(-c2ccco2)s1	16 (≈ 40.8 µM)
CCCC[C@H](CN(O)C=O)C(=O)N1CCC[C@H]1c1nnc(-c2cccc3ccccc23)s1	> 16
CCCC[C@H](CN(O)C=O)C(=O)N1CCC[C@H]1c1nnc(-c2sccc2F)s1	16 (≈ 37.5 µM)
CCCC[C@H](CN(O)C=O)C(=O)N1CCC[C@H]1c1nnc(-c2cc(C)nn2C)s1	16 (≈ 38 µM)
CCCC[C@H](CN(O)C=O)C(=O)N1CCC[C@H]1c1nnc(-c2ccc(F)cc2[N+](=O)[O-])s1	> 16
CCCC[C@H](CN(O)C=O)C(=O)N1CCC[C@H]1c1nnc(-c2ccc(OC)c(OC)c2)s1	16 (≈ 34.6 µM)
CCCC[C@H](CN(O)C=O)C(=O)N1CCC[C@H]1c1nnc(C2CCCCC2)s1	> 16
